Test [1] addresses human CB2 receptors (Homo sapiens (Human), UniProt P34972). The test is described as follows: cAMP assay, CHO cells expressing human CB2 receptors. As to conditions: CHO cells expressing human CB2, cAMP; read-out: human CB2 EC50. It is filed as cell-based. An outline of the steps:
(§1)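 Agonist EC50 values come from cAMP levels measured in intact CHO cells. Compounds act for 30 min at 30 °C in the presence of 1 mM IBMX, and cAMP is then detected by time-resolved energy transfer after lysis.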
On the technique in general: Cyclic AMP is a second messenger, typically raised through Gs and lowered through Gi signalling.

Test [2] has as its target human CB1 receptors (Homo sapiens (Human), UniProt P21554). The test is described as follows: cAMP assay, CHO cells expressing human CB1 receptors. In kind it is cell-based. The settings on record: CHO cells expressing human CB1, cAMP; read-out: human CB1 EC50. An outline of the steps: as §1

Our source for the EC50 values is US9290451B2 (Hoffmann-La Roche Inc., priority 2011, dated 2016).

The structures appear in SMILES notation.

One may read the EC50 as the concentration that produces a half-maximal response.

Sequence of human CB2 receptors (P34972 whole entry): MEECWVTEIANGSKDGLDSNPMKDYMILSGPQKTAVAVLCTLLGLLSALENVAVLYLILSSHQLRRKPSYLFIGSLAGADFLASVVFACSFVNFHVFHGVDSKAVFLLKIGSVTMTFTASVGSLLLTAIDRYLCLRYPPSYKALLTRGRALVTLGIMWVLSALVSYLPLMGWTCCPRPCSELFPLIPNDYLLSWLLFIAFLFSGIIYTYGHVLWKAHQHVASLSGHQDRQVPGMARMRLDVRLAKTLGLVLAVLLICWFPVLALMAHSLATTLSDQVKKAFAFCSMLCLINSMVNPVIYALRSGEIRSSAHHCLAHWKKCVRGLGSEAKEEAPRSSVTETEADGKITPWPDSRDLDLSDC
Sequence of human CB1 receptors (P21554 whole entry): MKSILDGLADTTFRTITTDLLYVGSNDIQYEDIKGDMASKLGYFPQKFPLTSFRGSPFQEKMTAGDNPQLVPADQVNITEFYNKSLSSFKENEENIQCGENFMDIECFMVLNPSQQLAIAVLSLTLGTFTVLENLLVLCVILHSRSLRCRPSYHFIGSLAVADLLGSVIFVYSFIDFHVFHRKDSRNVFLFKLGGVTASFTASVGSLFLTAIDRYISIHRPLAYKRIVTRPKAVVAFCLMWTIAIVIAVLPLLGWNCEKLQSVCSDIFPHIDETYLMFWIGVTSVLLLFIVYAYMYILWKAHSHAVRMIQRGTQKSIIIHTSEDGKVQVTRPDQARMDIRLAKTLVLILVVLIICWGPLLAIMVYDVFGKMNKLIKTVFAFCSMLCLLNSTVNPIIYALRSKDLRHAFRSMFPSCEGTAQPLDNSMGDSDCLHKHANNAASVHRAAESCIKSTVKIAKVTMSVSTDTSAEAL

In the case of `CNC(=O)[C@H](CC(C)C)NC(=O)c1cccc(-c2cccc(C(F)(F)F)c2)n1` [Example 211, (S)-N-(4-Methyl-1-(methylamino)-1-oxopentan-2-yl)-6-(3-(trifluoromethyl)phenyl)picolinamide], the EC50 in test [1] is 57.1 nM; in test [2], above 10000 nM.
In the case of `CNC(=O)[C@H](CC(C)C)NC(=O)c1cccc(-c2ccc(F)c(Cl)c2)n1` [Example 212, (S)-6-(3-Chloro-4-fluorophenyl)-N-(4-methyl-1-(methylamino)-1-oxopentan-2-yl)picolinamide], the EC50 was 13.4 nM in test [1] and above 10000 nM in test [2].
The matching figures for `CNC(=O)[C@@H](NC(=O)c1cccc(-c2cccc(F)c2)n1)C(C)(C)C` [Example 213, (S)-N-(3,3-Dimethyl-1-(methylamino)-1-oxobutan-2-yl)-6-(3-fluorophenyl)picolinamide]: 12.8 nM and 361 nM.
Take `CNC(=O)[C@@H](NC(=O)c1cccc(-c2cccc(C(F)(F)F)c2)n1)C(C)(C)C` [Example 214, (S)-N-(3,3-Dimethyl-1-(methylamino)-1-oxobutan-2-yl)-6-(3-(trifluoromethyl)phenyl)-picolinamide]: the EC50 in test [1] was determined as 53.7 nM; in test [2] it was 1630 nM.
Regarding `CNC(=O)[C@@H](NC(=O)c1cccc(-c2cccc(OC)c2)n1)C(C)(C)C` [Example 215, (S)-N-(3,3-Dimethyl-1-(methylamino)-1-oxobutan-2-yl)-6-(3-methoxyphenyl) picolinamide], the EC50 is 125 nM in test [1] and above 10000 nM in test [2].
On the same counts, the results for `CNC(=O)[C@@H](NC(=O)c1cccc(-c2ccc(F)c(Cl)c2)n1)C(C)(C)C` [Example 216, (S)-6-(3-Chloro-4-fluorophenyl)-N-(3,3-dimethyl-1-(methylamino)-1-oxobutan-2-yl)picolinamide] are 2.7 nM and 116 nM.
The matching figures for `O=C(N[C@@H](c1cccnc1)C(F)(F)F)c1ccc(C2CC2)c(OCC2CC2)n1` [Example 217, (S)-5-Cyclopropyl-6-(cyclopropylmethoxy)-N-(2,2,2-trifluoro-1-(pyridin-3-yl)ethyl)-picolinamide]: 41.1 nM and above 10000 nM.
The matching figures for `O=C(N[C@H](c1cccnc1)C(F)(F)F)c1ccc(C2CC2)c(OCC2CC2)n1` [Example 218, (R)-5-Cyclopropyl-6-(cyclopropylmethoxy)-N-(2,2,2-trifluoro-1-(pyridin-3-yl)ethyl)-picolinamide]: 24.1 nM and above 10000 nM.
Consider `Cc1nc(C(NC(=O)c2ccc(C3CC3)c(OCC3CCOCC3)n2)C2CC2)no1` (centres unmarked) [Example 219, 5-Cyclopropyl-6-(tetrahydro-pyran-4-ylmethoxy)-pyridine-2-carboxylic acid [cyclopropyl-(5-methyl-[1,2,4]oxadiazol-3-yl)-methyl]-amide], for which the results for the EC50 in test [1] and in test [2] were 10.8 nM and 2140 nM, respectively.
On the same counts, the results for `CCC(CC)(NC(=O)c1ccc(N(CC(F)(F)F)CC(F)(F)F)c(OCC2CC2)n1)C(=O)OC` [Example 220, 2-({5-[Bis-(2,2,2-trifluoro-ethyl)-amino]-6-cyclopropylmethoxy-pyridine-2-carbonyl}-amino)-2-ethyl-butyric acid methyl ester] are 1.6 nM and 129 nM.
On the same counts, the results for `Cc1nc(C(NC(=O)c2ccc(N3CC(F)(F)C3)c(OCC3CC3)n2)C2CC2)no1` (centres unmarked) [Example 221, 6-Cyclopropylmethoxy-5-(3,3-difluoro-azetidin-1-yl)-pyridine-2-carboxylic acid [cyclopropyl-(5-methyl-[1,2,4]oxadiazol-3-yl)-methyl]-amide] are 12.8 nM and 10000 nM.
On the same counts, the results for `CN(C)C(=O)[C@H](CC1CC1)NC(=O)c1ccc(C2CC2)c(OCC2CC2)n1` [Example 222, 5-Cyclopropyl-6-cyclopropylmethoxy-pyridine-2-carboxylic acid ((S)-2-cyclopropyl-1-dimethylcarbamoyl-ethyl)-amide] are 3.2 nM and above 10000 nM.
Regarding `O=C(NC(c1ccccn1)C(F)(F)F)c1ccc(C2CC2)c(OCC2CCOCC2)n1` (centres unmarked) [Example 223, 5-Cyclopropyl-6-(tetrahydro-pyran-4-ylmethoxy)-pyridine-2-carboxylic acid (2,2,2-trifluoro-1-pyridin-2-yl-ethyl)-amide], the EC50 came to 10.9 nM in test [1] and 655 nM in test [2].
For the compound `O=C(NC(c1ccccn1)C(F)(F)F)c1ccc(N2CC(F)(F)C2)c(OCC2CC2)n1` (centres unmarked) [Example 224, 6-Cyclopropylmethoxy-5-(3,3-difluoro-azetidin-1-yl)-pyridine-2-carboxylic acid (2,2,2-trifluoro-1-pyridin-2-yl-ethyl)-amide], the figures for the EC50 in test [1] and in test [2] were 22.2 nM and 648 nM, respectively.
On the same counts, the results for `CNC(=O)[C@@H](NC(=O)c1ccc(C2CC2)c(OCC2CC2)n1)c1ccccc1` [Example 225, 5-Cyclopropyl-6-cyclopropylmethoxy-pyridine-2-carboxylic acid ((−)-methylcarbamoyl-phenyl-methyl)-amide] are 48.4 nM and above 10000 nM.
On the same counts, the results for `CN(C)C(=O)[C@@H](NC(=O)c1ccc(C2CC2)c(OCC2CC2)n1)c1ccccc1` [Example 226, 5-Cyclopropyl-6-cyclopropylmethoxy-pyridine-2-carboxylic acid ((+)-dimethylcarbamoyl-phenyl-methyl)-amide] are 19.9 nM and above 10000 nM.
With `CN(C)C(=O)[C@H](NC(=O)c1ccc(C2CC2)c(OCC2CC2)n1)c1ccccc1` [Example 227, 5-Cyclopropyl-6-cyclopropylmethoxy-pyridine-2-carboxylic acid ((−)-dimethylcarbamoyl-phenyl-methyl)-amide], the EC50 in test [1] is 40.8 nM; in test [2], above 10000 nM.
On the same counts, the results for `CNC(=O)[C@H](CC(C)(C)C)NC(=O)c1ccc(C(F)(F)F)c(OCC2CC2)n1` [Example 228, 6-Cyclopropylmethoxy-5-trifluoromethyl-pyridine-2-carboxylic acid ((S)-3,3-dimethyl-1-methylcarbamoyl-butyl)-amide] are 16.8 nM and above 10000 nM.
As for `Cc1nc(C(NC(=O)c2ccc(C(F)(F)F)c(OCC3CC3)n2)C2CC2)no1` (centres unmarked) [Example 229, 6-Cyclopropylmethoxy-5-trifluoromethyl-pyridine-2-carboxylic acid [cyclopropyl-(5-methyl-[1,2,4]oxadiazol-3-yl)-methyl]-amide], the EC50 is 52.4 nM in test [1] and above 10000 nM in test [2].
On the same counts, the results for `CNC(=O)[C@H](CC(C)(C)C)NC(=O)c1ccc(C(F)(F)F)c(OCC2CCOCC2)n1` [Example 230, 6-(Tetrahydro-pyran-4-ylmethoxy)-5-trifluoromethyl-pyridine-2-carboxylic acid ((S)-3,3-dimethyl-1-methylcarbamoyl-butyl)-amide] are 29.4 nM and 1590 nM.
On the same counts, the results for `CC(C)C[C@H](NC(=O)c1ccc(C2CC2)c(OCC2CC2)n1)C(=O)N(C)C` [Example 231, 5-Cyclopropyl-6-cyclopropylmethoxy-pyridine-2-carboxylic acid ((S)-1-dimethylcarbamoyl-3-methyl-butyl)-amide] are 1.4 nM and 678 nM.
On the same counts, the results for `CCC(CC)(NC(=O)c1ccc(C2CC2)c(OCC2CCCO2)n1)C(=O)OC` (centres unmarked) [Example 233, 2-{[5-Cyclopropyl-6-(tetrahydro-furan-2-ylmethoxy)-pyridine-2-carbonyl]-amino}-2-ethyl-butyric acid methyl ester] are 0.1 nM and 71 nM.
For the compound `CNC(=O)[C@H](CC(C)(C)C)NC(=O)c1ccc(N2CCC23COC3)c(OCC2CC2)n1` [Example 234, 6-Cyclopropylmethoxy-5-(6-oxa-1-aza-spiro[3.3]hept-1-yl)-pyridine-2-carboxylic acid ((S)-3,3-dimethyl-1-methylcarbamoyl-butyl)-amide], the EC50 in test [1] is 8.3 nM; in test [2] it was above 10000 nM.
On the same counts, the results for `Cc1nc(C(C)(C)NC(=O)c2ccc(N3CCC34COC4)c(OCC3CC3)n2)no1` [Example 235, 6-Cyclopropylmethoxy-5-(6-oxa-1-aza-spiro[3.3]hept-1-yl)-pyridine-2-carboxylic acid [1-methyl-1-(5-methyl-[1,2,4]oxadiazol-3-yl)-ethyl]-amide] are 41.3 nM and above 10000 nM.
On the same counts, the results for `Cc1nc(C(NC(=O)c2ccc(N3CCC34COC4)c(OCC3CC3)n2)C2CC2)no1` (centres unmarked) [Example 236, 6-Cyclopropylmethoxy-5-(6-oxa-1-aza-spiro[3.3]hept-1-yl)-pyridine-2-carboxylic acid [cyclopropyl-(5-methyl-[1,2,4]oxadiazol-3-yl)-methyl]-amide] are 36.5 nM and above 10000 nM.
As to `O=C(N[C@H](c1cccnc1)C(F)(F)F)c1ccc(N2CC(F)(F)C2)c(OCC2CC2)n1` [Example 237, 6-Cyclopropylmethoxy-5-(3,3-difluoro-azetidin-1-yl)-pyridine-2-carboxylic acid ((R)-2,2,2-trifluoro-1-pyridin-3-yl-ethyl)-amide], the values for the EC50 in test [1] and in test [2] were 97.5 nM and above 10000 nM, respectively.
On the same counts, the results for `CCC(CC)(NC(=O)c1ccc(C(F)(F)F)c(OCC2CCOCC2)n1)C(=O)OC` [Example 238, 2-Ethyl-2-{[6-(tetrahydro-pyran-4-ylmethoxy)-5-trifluoromethyl-pyridine-2-carbonyl]-amino}-butyric acid methyl ester] are 0.4 nM and 146 nM.
On the same counts, the results for `COC(=O)[C@@H](NC(=O)c1ccc(C2CC2)c(OCC2CC2)n1)C(C)(C)C` [Example 239, (S)-2-[(5-Cyclopropyl-6-cyclopropylmethoxy-pyridine-2-carbonyl)-amino]-3,3-dimethyl-butyric acid methyl ester] are 1.1 nM and 91.9 nM.
